Reference: US6716829B2, “Aldosterone antagonist and cyclooxygenase-2 inhibitor combination therapy to prevent or treat inflammation-related cardiovascular disorders” (Pharmacia Corporation, priority 2000, dated 2004)
Values joined by “and” are separate entries in the source; they are usually repeats but may differ in a detail not shown here. Identical values can stand only once. “Also recorded” adds a separate entry of the source.

Key:
[1] = tested on: monocyte chemoattractant protein-1 (MCP-1); assay: Assay C: MCP-1 mRNA in heart by TaqMan RT-PCR; format: in vivo, Male Sprague-Dawley rats; conditions: for MCP-1 mRNA (AU): relative to cyclophilin expression, mean ± SEM, eplerenone dose 100 mg/kg/day; for MCP1 (AU): mRNA, individual rats, incl. rat marked * excluded from statistics; for MCP-1 mRNA expression: myocardium, aldosterone + salt, 7, 14, 30 days, eplerenone 100 mg/kg/day
Protocol: The procedure of Assay B was expanded upon in a further study. […] Myocardial tissue from animals in each treatment group was examined after 7, 14, or 30 days of treatment.
Potassium chloride supplementation was added to the saline solution in order to prevent the potential hypokalemia associated with aldosterone excess.
At the time of the surgery, an Alzet 2002 osmotic minipump (Alza Corp., Palo Alto, Calif.) containing either vehicle (9% ethanol/87% propylene glycol/4% dH2O) or 1.0 mg/mL d-aldosterone (Sigma Chemical, St. Louis, Mo.) was inserted subcutaneously at the nape of the neck. Aldosterone was administered at a dose of 0.75 µg/hour. […] Animals were sacrificed from each group (n=8-13) after 7, 14, or 30 days of treatment.
The fluorogenic 5′-nuclease assay (TaqMan PCR) using Applied Biosystems' 7700 Sequence Detection System (Applied Biosystems, Foster City, Calif.) allowed for real time detection/quantitation of a specific gene by monitoring the increase in fluorescence of a gene-specific, dye-labeled oligonucleotide probe. Probes for target and reference genes were labeled at the 5′-end with a 6-carboxyfluorescein (6FAM) reporter dye and at the 3′-end with a 6-carboxy-N,N,N′,N′-tetramethylrhodamine (TAMRA) quencher dye. When the probe was annealed to the target gene, fluorescence of 6FAM was prevented by the close proximity of TAMRA. The exonuclease activity of Taq polymerase released the dyes from the oligonucleotide probe by displacing the probe from the target sequence resulting in fluorescence excitation in direct proportion to the amount of target message present. Data analysis was performed using the Sequence Detection System software from Applied Biosystems.
All primers and probes were designed using Primer Express software supplied with the 7700 Sequence Detection System and synthesized by Applied Biosystems. Standard curves using 5-fold dilutions of total RNA (from 200 ng to 320 pg) were performed to determine the efficiency of each primer/probe set in the TaqMan reaction prior to the analysis of the experimental samples. Primer/probe sets were designed from known sequences of rat genes to be analyzed. All target gene values were normalized to a reference gene, constitutively expressed cyclophilin. Primer/probe set sequences can be found in Table 8.
RNA was extracted from frozen (−80° C.) rat heart tissue using the Totally RNA Isolation Kit (Ambion, Inc., Austin, Tex.). Tissue was crushed using a stainless steel mortar and pestle, which had been chilled to −80° C. and transferred to a dounce homogenizer (Kontes, Vineland, N.J.) containing 3-10 mL cold denaturation buffer. Tissue was homogenized and transferred to a sterile, 15 mL polypropylene centrifuge tube. An equal volume of phenol:chloroform:isoamyl alcohol (25:24:1) was added, samples were shaken vigorously for 1 min, and incubated on ice for at least 15 min. Samples were centrifuged for 30 min at 10,000g. The aqueous phase was removed, 1/10 volume of a sodium acetate solution (3.0 M NaOAc pH 4.5) was added, samples were shaken or inverted for 10 seconds, and acid-phenol (premixed with isoamyl alcohol):chloroform (5:1, Ambion, Inc.) was added at an volume equivalent to the starting sample volume. Samples were shaken vigorously for 1 min, followed by a 15-min incubation on ice, and centrifuged for 30 min at 10,000 g. The aqueous phase removed and placed in a clean polypropylene tube. An equal volume of isopropanol (Sigma, St. Louis, Mo.) was added and the samples were mixed and incubated overnight at −20° C. The samples were centrifuged for 30 min at 10,000 g, the supernatant was removed and the RNA pellet was resuspended in DNAse/RNAse-free water. Samples were frozen at −80° C. for at least 2 hours, thawed on wet ice, and diluted for quantitation.

hydroxyproline = assay: Assay C: myocardial hydroxyproline assay; format: in vivo, Male Sprague-Dawley rats
Protocol: The procedure of Assay B was expanded upon in a further study. […] Myocardial tissue from animals in each treatment group was examined after 7, 14, or 30 days of treatment. […] Lesions were preceded by the expression and progressive upregulation of proinflammatory molecules. […] Prior to surgery the animals were individually weighed and placed in one of the following groups: […] Potassium chloride supplementation was added to the saline solution in order to prevent the potential hypokalemia associated with aldosterone excess. […] Louis, Mo.) was inserted subcutaneously at the nape of the neck. Aldosterone was administered at a dose of 0.75 µg/hour. […] Animals were sacrificed from each group (n=8-13) after 7, 14, or 30 days of treatment. Following exsanguination, hearts and kidneys were isolated, removed, rinsed in cold phosphate-buffered saline, and blotted dry. […] Myocardial hydroxyproline concentration was measured by a […] assay that quantifies the reaction between oxidized hydroxyproline, and p-dimethylaminobenzaldehyde as described previously (4). […] Dried tissues and a positive collagen control (Bovine Collagen Type I, Sigma, St. […] T. Baker, Phillipsburg, N.J.) for 5 min at 25° C. […] Samples were incubated at 60° C. for 30 min, cooled to room temperature, and absorbance was monitored at 558 nm. Hydroxyproline content was quantitated from a freshly prepared standard curve of trans-4-hydroxy-L-proline (Sigma, St. Louis, Mo.). All samples and standards were performed in duplicate.

[2] = tested on: aldosterone-infused, saline-drinking, uni-nephrectomized rats; assay: Assay B: heart histology (hematoxylin&eosin), vascular inflammatory lesions and myocardial injury; format: in vivo, Male Sprague Dawley rats; conditions: eplerenone 100 mpk p.o., 0.6% KCl group, 4 weeks
Protocol: Assay B: In Vivo Aldosterone Infusion Model Male Sprague Dawley rats (n=39; BW=250 g) […] Uni-nephrectomy performed during implantation of mini-pumps 2. Aldosterone ([…], sc via alzet minipump) 2. […] 1. […] Sacrifice after 4 weeks. Hearts were harvested and divided by half through a transverse section at the mid-ventricles: The upper half was stored into formalin. The bottom part was snap-frozen in liquid nitrogen for biochemical analysis. Hearts were stained with hematoxylin&eosin and the collagen specific dye picro-sirius red and were analyzed for determination of interstitial collagen volume fraction and morphologic abnormalities (i.e. necrosis, vascular injury).

[3] = group mean, data used for Table 15 (14 days of treatment)
[4] = group mean, data used for Table 16 (30 days of treatment)
[5] = mean after 7 days of treatment, eplerenone dose 100 mg/kg/day
[6] = mean after 14 days of treatment, eplerenone dose 100 mg/kg/day
[7] = mean after 30 days of treatment, eplerenone dose 100 mg/kg/day

Structure (SMILES) | MCP-1 mRNA (AU) ([1]; after 7 days of treatment) | MCP-1 mRNA (AU) ([1]; after 14 days of treatment) | MCP-1 mRNA (AU) ([1]; after 30 days of treatment) | MCP1 (AU) ([1]; data used for Table 17 (7-day protocol), listed as Aldosterone + salt) | MCP1 (AU) ([1]; data used for Table 18 (14-day protocol), listed as Aldosterone + salt) | MCP1 (AU) ([1]; data used for Table 19 (30-day protocol), listed as Aldosterone + salt) | MCP-1 mRNA expression [1] | Hydroxyproline (hydroxyproline; [3]) | Hydroxyproline (hydroxyproline; [4]) | Hydroxyproline (hydroxyproline; individual rats, data used for Table 15 (14 days of treatment), incl. rat marked * excluded from statistics, listed as Aldosterone + salt) | Hydroxyproline (hydroxyproline; individual rats, data used for Table 16 (30 days of treatment), incl. rat marked * excluded from statistics, listed as Aldosterone + salt) | Hydroxyproline (hydroxyproline; [5]) | Hydroxyproline (hydroxyproline; [6]) | Hydroxyproline (hydroxyproline; [7]) | Vascular inflammatory changes / myocardial injury [2] | MCP1 (AU) ([1]; data used for Table 17 (7-day protocol), listed as Eplerenone + aldosterone + salt) | MCP1 (AU) ([1]; data used for Table 18 (14-day protocol), listed as Eplerenone + aldosterone + salt) | MCP1 (AU) ([1]; data used for Table 19 (30-day protocol), listed as Eplerenone + aldosterone + salt) | Hydroxyproline (hydroxyproline; individual rats, data used for Table 15 (14 days of treatment), incl. rat marked * excluded from statistics, listed as Eplerenone + aldosterone + salt) | Hydroxyproline (hydroxyproline; individual rats, data used for Table 16 (30 days of treatment), incl. rat marked * excluded from statistics, listed as Eplerenone + aldosterone + salt)
C[C@]12CCC(=O)C=C1CC[C@@H]1[C@@H]2[C@@H](O)C[C@]2(C=O)[C@@H](C(=O)CO)CC[C@@H]12 [Aldosterone] | 2.38 AU | 2.76 AU | 4.54 AU | 2.05 AU and 1.78 AU and 3.06 AU and 2.36 AU and 1.95 AU and 2.33 AU and 3.14 AU and 2.40 AU and 5.17 AU | 2.42 AU and 1.87 AU and 4.59 AU and 3.19 AU and 3.34 AU and 1.91 AU and 2.50 AU and 2.22 AU and 5.88 AU | 3.94 AU and 7.19 AU and 1.61 AU and 9.35 AU and 2.30 AU and 2.86 AU | significantly increased | 4.04 µg/mg | 4.39 µg/mg | 2.89 µg/mg and 2.91 µg/mg and 6.28 µg/mg and 5.63 µg/mg and 4.83 µg/mg and 5.64 µg/mg and 5.29 µg/mg and 2.76 µg/mg and 2.68 µg/mg and 2.60 µg/mg and 3.00 µg/mg and 3.99 µg/mg and 2.73 µg/mg | 7.24 µg/mg and 8.01 µg/mg and 3.62 µg/mg and 3.69 µg/mg and 4.00 µg/mg and 3.54 µg/mg and 3.07 µg/mg and 3.25 µg/mg and 3.09 µg/mg | 2.73 µg/mg | 4.04 µg/mg | 4.39 µg/mg | severe vascular inflammatory lesions | – | – | – | – | –
COC(=O)[C@@H]1CC2=CC(=O)CC[C@]2(C)[C@@]23O[C@@H]2C[C@@]2(C)[C@@H](CC[C@@]24CCC(=O)O4)[C@H]13 [Eplerenone] | 1.56 AU | 1.59 AU | 2.29 AU | – | – | – | inhibition; also recorded: significantly reduced | 4.46 µg/mg | 4.10 µg/mg | – | – | 3.06 µg/mg | 4.46 µg/mg | 4.10 µg/mg | prevention; also recorded: completely prevented | 2.35 AU and 1.60 AU and 0.85 AU and 0.83 AU and 1.74 AU and 2.38 AU and 0.67 AU and 2.03 AU | 1.78 AU and 1.37 AU and 1.27 AU and 1.75 AU and 1.60 AU and 1.24 AU (2×) and 1.92 AU and 1.89 AU and 2.21 AU and 1.20 AU | 2.11 AU (2×) and 1.70 AU and 2.21 AU and 1.38 AU and 2.10 AU and 2.02 AU and 1.43 AU and 5.58 AU and 8.14 AU | 2.95 µg/mg and 5.97 µg/mg and 6.52 µg/mg and 5.35 µg/mg and 6.80 µg/mg and 5.32 µg/mg and 2.72 µg/mg and 3.13 µg/mg and 2.41 µg/mg and 2.81 µg/mg and 5.03 µg/mg | 5.18 µg/mg and 6.11 µg/mg and 5.17 µg/mg and 6.40 µg/mg and 2.73 µg/mg and 2.84 µg/mg and 2.97 µg/mg and 2.82 µg/mg and 2.72 µg/mg and 5.75 µg/mg
